PMC9481151, “Discovery of new symmetrical and asymmetrical nitrile-containing 1,4-dihydropyridine derivatives as dual kinases and P-glycoprotein inhibitors: synthesis, in vitro assays, and in silico studies” (Journal of Enzyme Inhibition and Medicinal Chemistry, 2022)

Assays:
CCRF-CEM = test: NCI single dose (10 µM) SRB screen; format: cell-based, human; settings: leukaemia, 48 h
HL-60(TB) = test: NCI single dose (10 µM) SRB screen; format: cell-based, human; settings: leukaemia, 48 h
K-562 = test: NCI single dose (10 µM) SRB screen; format: cell-based, human; settings: leukaemia, 48 h
MOLT-4 = test: NCI single dose (10 µM) SRB screen; format: cell-based, human; settings: leukaemia, 48 h
RPMI-8226 = test: NCI single dose (10 µM) SRB screen; format: cell-based, human; settings: leukaemia, 48 h
SR = test: NCI single dose (10 µM) SRB screen; format: cell-based, human; settings: leukaemia, 48 h
A549/ATCC = test: NCI single dose (10 µM) SRB screen; format: cell-based, human; settings: non-small cell lung cancer, 48 h
EKVX = test: NCI single dose (10 µM) SRB screen; format: cell-based, human; settings: non-small cell lung cancer, 48 h
HOP-62 = test: NCI single dose (10 µM) SRB screen; format: cell-based, human; settings: non-small cell lung cancer, 48 h
NCI-H23 = test: NCI single dose (10 µM) SRB screen; format: cell-based, human; settings: non-small cell lung cancer, 48 h
NCI-H322M = test: NCI single dose (10 µM) SRB screen; format: cell-based; settings: non-small cell lung cancer, 48 h
NCI-H460 = test: NCI single dose (10 µM) SRB screen; format: cell-based, human; settings: non-small cell lung cancer, 48 h
NCI-H522 = test: NCI single dose (10 µM) SRB screen; format: cell-based, human; settings: non-small cell lung cancer, 48 h
COLO 205 = test: NCI single dose (10 µM) SRB screen; format: cell-based, human; settings: colon cancer, 48 h
HCC-2998 = test: NCI single dose (10 µM) SRB screen; format: cell-based, human; settings: colon cancer, 48 h
HCT-116 = test: NCI single dose (10 µM) SRB screen; format: cell-based, human; settings: colon cancer, 48 h
HCT-15 = test: NCI single dose (10 µM) SRB screen; format: cell-based, human; settings: colon cancer, 48 h
HT29 = test: NCI single dose (10 µM) SRB screen; format: cell-based, human; settings: colon cancer, 48 h
KM12 = test: NCI single dose (10 µM) SRB screen; format: cell-based, human; settings: colon cancer, 48 h
SF-268 = test: NCI single dose (10 µM) SRB screen; format: cell-based, human; settings: CNS cancer, 48 h
SF-295 = test: NCI single dose (10 µM) SRB screen; format: cell-based, human; settings: CNS cancer, 48 h
SF-539 = test: NCI single dose (10 µM) SRB screen; format: cell-based, human; settings: CNS cancer, 48 h
SNB-19 = test: NCI single dose (10 µM) SRB screen; format: cell-based, human; settings: CNS cancer, 48 h
SNB-75 = test: NCI single dose (10 µM) SRB screen; format: cell-based, human; settings: CNS cancer, 48 h
U251 = test: NCI single dose (10 µM) SRB screen; format: cell-based, human; settings: CNS cancer, 48 h
MALME-3M = test: NCI single dose (10 µM) SRB screen; format: cell-based, human; settings: melanoma, 48 h
M14 = test: NCI single dose (10 µM) SRB screen; format: cell-based, human; settings: melanoma, 48 h
MDA-MB-435 = test: NCI single dose (10 µM) SRB screen; format: cell-based, human; settings: melanoma, 48 h
SK-MEL-2 = test: NCI single dose (10 µM) SRB screen; format: cell-based, human; settings: melanoma, 48 h
SK-MEL-28 = test: NCI single dose (10 µM) SRB screen; format: cell-based, human; settings: melanoma, 48 h
UACC-257 = test: NCI single dose (10 µM) SRB screen; format: cell-based, human; settings: melanoma, 48 h
UACC-62 = test: NCI single dose (10 µM) SRB screen; format: cell-based, human; settings: melanoma, 48 h
IGROV1 = test: NCI single dose (10 µM) SRB screen; format: cell-based, human; settings: ovarian cancer, 48 h
OVCAR-5 = test: NCI single dose (10 µM) SRB screen; format: cell-based, human; settings: ovarian cancer, 48 h
NCI/ADR-RES = test: NCI single dose (10 µM) SRB screen; format: cell-based, human; settings: ovarian cancer, 48 h
SK-OV-3 = test: NCI single dose (10 µM) SRB screen; format: cell-based, human; settings: ovarian cancer, 48 h
786-0 = test: NCI single dose (10 µM) SRB screen; format: cell-based, human; settings: renal cancer, 48 h
A498 = test: NCI single dose (10 µM) SRB screen; format: cell-based, human; settings: renal cancer, 48 h
ACHN = test: NCI single dose (10 µM) SRB screen; format: cell-based, human; settings: renal cancer, 48 h
CAKI-1 = test: NCI single dose (10 µM) SRB screen; format: cell-based, human; settings: renal cancer, 48 h
SN12C = test: NCI single dose (10 µM) SRB screen; format: cell-based, human; settings: renal cancer, 48 h
TK-10 = test: NCI single dose (10 µM) SRB screen; format: cell-based, human; settings: renal cancer, 48 h
UO-31 = test: NCI single dose (10 µM) SRB screen; format: cell-based, human; settings: renal cancer, 48 h
PC-3 = test: NCI single dose (10 µM) SRB screen; format: cell-based, human; settings: prostate cancer, 48 h
DU-145 = test: NCI single dose (10 µM) SRB screen; format: cell-based, human; settings: prostate cancer, 48 h
MDA-MB-231 = test: NCI single dose (10 µM) SRB screen; format: cell-based, human; settings: breast cancer, 48 h
T-47D = test: NCI single dose (10 µM) SRB screen; format: cell-based, human; settings: breast cancer, 48 h
MDA-MB-468 = test: NCI single dose (10 µM) SRB screen; format: cell-based, human; settings: breast cancer, 48 h
Staphylococcus aureus = test: Agar well diffusion method
Bacillus subtilis = test: Agar well diffusion method
Escherichia coli = test: Agar well diffusion method; settings: relative to ciprofloxacin
Pseudomonas aeruginosa = test: Agar well diffusion method

Structure (SMILES): CC1=C(C(=O)OC(C)C)C(c2cccc(C#N)c2)C(C(=O)OC(C)C)=C(C)N1 [Compound 1c, Diisopropyl 4-(3-cyanophenyl)-2,6-dimethyl-1,4-dihydropyridine-3,5-dicarboxylate]
- GI% CCRF-CEM (CCRF-CEM): – (Only GI% ≥ 10 are shown)
- GI% HL-60(TB) (HL-60(TB)): 29%
- GI% K-562 (K-562): 25%
- GI% MOLT-4 (MOLT-4): 17%
- GI% RPMI-8226 (RPMI-8226): 17%
- GI% SR (SR): 18%
- GI% A549/ATCC (A549/ATCC): 11%
- GI% EKVX (EKVX): – (Only GI% ≥ 10 are shown)
- GI% HOP-62 (HOP-62): – (Only GI% ≥ 10 are shown)
- GI% NCI-H23 (NCI-H23): – (Only GI% ≥ 10 are shown)
- GI% NCI-H322M (NCI-H322M): – (Only GI% ≥ 10 are shown)
- GI% NCI-H460 (NCI-H460): – (Only GI% ≥ 10 are shown)
- GI% NCI-H522 (NCI-H522): 11%
- GI% COLO 205 (COLO 205): – (Only GI% ≥ 10 are shown)
- GI% HCC-2998 (HCC-2998): – (Only GI% ≥ 10 are shown)
- GI% HCT-116 (HCT-116): 13%
- GI% HCT-15 (HCT-15): 10%
- GI% HT29 (HT29): – (Only GI% ≥ 10 are shown)
- GI% KM12 (KM12): – (Only GI% ≥ 10 are shown)
- GI% SF-268 (SF-268): – (Only GI% ≥ 10 are shown)
- GI% SF-295 (SF-295): – (Only GI% ≥ 10 are shown)
- GI% SF-539 (SF-539): – (Only GI% ≥ 10 are shown)
- GI% SNB-19 (SNB-19): – (Only GI% ≥ 10 are shown)
- GI% SNB-75 (SNB-75): 20%
- GI% U251 (U251): – (Only GI% ≥ 10 are shown)
- GI% MALME-3M (MALME-3M): – (Only GI% ≥ 10 are shown)
- GI% M14 (M14): – (Only GI% ≥ 10 are shown)
- GI% MDA-MB-435 (MDA-MB-435): – (Only GI% ≥ 10 are shown)
- GI% SK-MEL-2 (SK-MEL-2): – (Only GI% ≥ 10 are shown)
- GI% SK-MEL-28 (SK-MEL-28): – (Only GI% ≥ 10 are shown)
- GI% UACC-257 (UACC-257): – (Only GI% ≥ 10 are shown)
- GI% UACC-62 (UACC-62): 14%
- GI% IGROV1 (IGROV1): – (Only GI% ≥ 10 are shown)
- GI% OVCAR-5 (OVCAR-5): – (Only GI% ≥ 10 are shown)
- GI% NCI/ADR-RES (NCI/ADR-RES): – (Only GI% ≥ 10 are shown)
- GI% SK-OV-3 (SK-OV-3): – (Only GI% ≥ 10 are shown)
- GI% 786-0 (786-0): 16%
- GI% A498 (A498): – (Only GI% ≥ 10 are shown)
- GI% ACHN (ACHN): – (Only GI% ≥ 10 are shown)
- GI% CAKI-1 (CAKI-1): 19%
- GI% SN12C (SN12C): – (Only GI% ≥ 10 are shown)
- GI% TK-10 (TK-10): – (Only GI% ≥ 10 are shown)
- GI% UO-31 (UO-31): – (Only GI% ≥ 10 are shown)
- GI% PC-3 (PC-3): 29%
- GI% DU-145 (DU-145): – (Only GI% ≥ 10 are shown)
- GI% MDA-MB-231 (MDA-MB-231): – (Only GI% ≥ 10 are shown)
- GI% T-47D (T-47D): 30%
- GI% MDA-MB-468 (MDA-MB-468): 22%
- zone of inhibition at 1000 µg/mL (Staphylococcus aureus; Staphylococcus aureus, 24 h, read-out: Diameter of inhibition zone, S. aureus): 11 mm
- % activity index, S. aureus (Staphylococcus aureus; relative to ciprofloxacin): 45.8%
- zone of inhibition at 1000 µg/mL (Bacillus subtilis; Bacillus subtilis, 24 h, read-out: Diameter of inhibition zone, B. subtilis): 6 mm
- % activity index, B. subtilis (Bacillus subtilis; relative to ciprofloxacin): 26.1%
- % activity index, E. coli (Escherichia coli): – (Values below 25 are of limited value and not shown as they refer either to inactive or non-diffusing compounds)
- zone of inhibition at 1000 µg/mL (Pseudomonas aeruginosa; Pseudomonas aeruginosa, 24 h, read-out: Diameter of inhibition zone, P. aeruginosa): 8 mm
- % activity index, P. aeruginosa (Pseudomonas aeruginosa; relative to ciprofloxacin): 34.8%
